Data from paper PMC10852989, “Combining cisplatin and a STING agonist into one molecule for metalloimmunotherapy of cancer” (National Science Review, 2024).

Assays:
HK-2 cells = assay: 72 h MTT cytotoxicity, HK-2; type: cell-based; conditions: human normal kidney cell line
Method: (§1) Cytotoxicity. Tumor cells were cultured overnight after inoculation in RPMI-1640 medium or DMEM supplemented with 10% FBS. All cultures were maintained in an incubator in a highly humidified atmosphere of 95% air with 5% CO2 at 37 °C. Growth inhibition was measured with an MTT assay. Briefly, 2800–7000 cells per well in culture medium (100 μL) were plated in 96-well plates (Corning). The cells were treated in triplicate with different concentrations of complexes at 37 ℃ for 72 h. Stock solutions of CDDP and oxoplatin were prepared in PBS, while stock solutions of conjugates I and II and the ligand MSA-2 were prepared in DMSO. The stock solutions were diluted in complete medium (DMSO < 0.5%). An aliquot of MTT solution (40 μL, 2.5 mg·mL^–1) in PBS buffer was added to each well and incubated for 4 h. The supernatant was removed and DMSO (150 μL) was added to solubilize the formazan crystals. The amount of formazan was determined using a microplate reader at 570 nm after the plates were shaken for 30 min. The optical density (OD) was used to calculate the percentage of viable cells relative to untreated control values. Background readings for MTT incubated in cell-free medium were subtracted from each value before calculation. […] The mean IC50 values were calculated using data from three replicates.

PANC-1 cells [1] = assay: 72 h MTT cytotoxicity, PANC-1; type: cell-based, human
Method: as §1

MCF-7 cells = assay: 72 h MTT cytotoxicity, MCF-7; type: cell-based, human
Method: as §1

[2] = test system: cancer cell lines (MCF-7, Caov3, PANC-1, BxPC3, Pan02); assay: 72 h MTT cytotoxicity, panel of cancer cell lines; type: cell-based
Method: as §1

PANC-1 cells [3] = assay: cellular uptake of Pt by ICP-MS, PANC-1; type: cell-based, human
Method: Cellular uptake. All incubations were carried out in the dark. After the designated incubation period, the medium was removed, and the cells were harvested with trypsin and rinsed twice with PBS (1×, 20 mM, pH 7.4), followed by digestion and ICP-MS.
Cancer cells were seeded in a 6-well plate at a density of 5×10^5 cells per well. After incubation for 24 h, the cells were treated with each complex for 6 h.
Cancer cells preincubated with metabolic inhibitor (MIs) were also evaluated. These cells were preincubated with 2-deoxy-D-glucose and oligomycin (50 mM and 5 μM, respectively, 1 h) or NH4Cl (50 mM, 1 h) at 37 ℃ followed by incubation with DMEM containing CDDP, I or II at 37 ℃ for 6 h.
Digestion. Cell pellets were collected by centrifugation and then digested with nitric acid (100 µL) for 2 h at 95 °C, followed by the addition of H2O2 (50 µL) at 95 °C for 0.5 h. HCl (100 µL) was added and kept at 95 °C until the total volume was less than 20 μL. Water was then added to dilute the solution to 1 mL, and the final Pt content was determined by ICP-MS.

[4] = test system: nuclear DNA of PANC-1 cells; assay: platination of cellular DNA by ICP-MS; type: cell-based, human; conditions: 6 h
Method: DNA platination. Cancer cells were seeded in 6-well plates at a density of 5×10^5 cells per well. After incubation at 37 °C for 24 h, the cells were treated with each complex for 6 h. The attached cells were harvested with trypsin and washed twice with PBS (4 °C). The cell pellets were lysed with the TIANamp Genomic DNA Kit. The DNA concentration was determined using NanoDrop spectrophotometer, and then the isolated DNA was digested with the same method mentioned above. The final Pt content was determined by ICP-MS.

[5] = test system: BMDCs cultured with Pan02 cell CM; assay: IFN-β ELISA of BMDCs incubated with conditioned medium of drug-treated Pan02 cells; type: cell-based, mouse
Method: ELISA. Bone marrow-derived dendritic cells (BMDCs) were prepared according to the following method. Briefly, femurs and tibias were removed from 4-6 week-old C57BL/6 mice, and the bone marrow cells were isolated. The bone marrow cells were incubated in T cell medium [RPMI-1640 medium (with GlutaMAX), supplemented with 10% FBS, 1% HEPES, 1% NEAA, 1% sodium pyruvate, and 0.1% βME] containing 20 ng/mL GM-CSF for 6 days after erythrocyte lysis, during which time half of the medium was replaced with fresh T cell medium once and the cytokines were supplemented. Then, the BMDCs were harvested on day 7 for further study.
Pan02 tumor cells were treated with various drugs at a concentration of 5 μM for 48 h, and then the drug-pretreated tumor cell supernatant was obtained by centrifugation at a speed of 12000 rpm/min for 5 min and used as conditioned media (CM) subsequently.
BMDCs were cultured with 50% CM plus 50% fresh medium for 18 h. In addition, BMDCs were cultured with fresh medium containing different complexes or mixtures (15 μM CDDP and I, a mixture of I and 8 equiv. AsA, and equal AsA). Then, all the BMDC supernatant was collected and centrifuged for subsequent cytokine analysis using ELISA kits, which were performed according to the manufacturer’s instructions.

Pan02 cells = assay: Pan02 cell viability with cell death inhibitors / at matched Pt uptake; type: cell-based; conditions: Pan02, I 0.2 μM; necrostatin-1 50 μM, ferrostatin 50 μM
Method: For Pan02 cells, the cell viability in the presence of different cell death inhibitors was also determined. Therefore, Pan02 cells were respectively pre-incubated with z-VAD-fmk (50 μM), 3-Methyladenine (100 μM), ferrostatin (50 μM), necrostatin-1 (50 μM) 1 h, and then co-incubated I (0.2 μM) for 72 h. The cell viability was then determined.
Fig. S17. (A) The chemical structure of Pt-E-I. (B) Cellular uptake of Pt (ng Pt/mg protein) in Pan02 cells after exposure to Pt-E-I (5 μM) for 6 h. NH4Cl: cells preincubated with 50 mM NH4Cl; MI: cells preincubated with 50 mM 2-deoxy-D-glucose and 5 μΜ oligomycin. (C) Cellular uptake of Pt (ng Pt/mg protein) in Pan02 cells after exposure to I and Pt-E-I (1, 2, 5, 10, 20 μM) for 6 h. (D) The cell viability of Pan02 treated with I (5 μM) and Pt-E-I (20 μM). (E) Hierarchical clustering of differentially expressed genes between I-treated (5 μM) Pan02 cells, Pt-E-I-treated (20 μM) and nontreated cells.

COc1cc2cc(C(=O)CCC(=O)[O][Pt]([NH2])([NH2])([OH])([Cl])[Cl])sc2cc1OC [conjugate I]
IC50 (HK-2 cells): 120 ± 10 nM | IC50 (PANC-1 cells [1]): 60 ± 20 nM | IC50 (MCF-7 cells): 300 ± 100 nM | IC50 in these cancer cell lines [2]: submicromolar | cellular Pt levels after preincubation with metabolic inhibitors (MIs) (PANC-1 cells [3]; PANC-1, 5 μM, 6 h, 50 mM 2-deoxy-D-glucose and 5 μM oligomycin, versus no MI pretreatment): significantly decreased | intracellular Pt levels after pretreatment with endocytosis inhibitor NH4Cl (PANC-1 cells [3]; PANC-1, 5 μM, 6 h, 50 mM NH4Cl): did not significantly change | fold increase of cellular Pt compared with CDDP (PANC-1 cells [3]; PANC-1 cells, 6 h): 92 fold | fold increase of cellular Pt compared with conjugate II (PANC-1 cells [3]; PANC-1 cells, 6 h): 68 fold | cellular Pt content (PANC-1 cells [3]; PANC-1 cells, 6 h incubation, ICP-MS): 155.7 ng Pt/mg protein | platination of cellular DNA [4]: stronger than that by CDDP or conjugate II | IFN-β secretion by BMDCs pretreated with MyD88 inhibitor, treated Pan02 cell CM ([5]; MyD88 inhibitor TJ-M2010-5): significant decrease | IFN-β secretion by BMDCs incubated with treated Pan02 cell CM ([5]; Pan02 treated 48 h at 5 μM (Pt-E-I 20 μM), BMDCs 50% CM, 18 h): markedly increased | cell killing on co-incubation with necroptosis and ferroptosis inhibitors (Pan02 cells): significant reversal of cell killing
